Measurements published in ChEMBL document CHEMBL3217615, “Novel 3,5-bis(arylidiene)-4-piperidone based monocarbonyl analogs of curcumin: anticancer activity evaluation and mode of action study” (2014).

Legend:
Format in all cases: functional
[1] = Growth inhibition of human UACC62 cells after 48 hrs by sulforhodamine B assay; settings: UACC-62, 48 h
SNB-19 = assay: Growth inhibition of human SNB19 cells assessed as cell growth at 10^-8 M after 48 hrs by sulforhodamine B assay; settings: SNB-19, 48 h
CCRF-CEM = assay: Growth inhibition of human CCRF-CEM cells assessed as cell growth at 10^-7 M after 48 hrs by sulforhodamine B assay; settings: read-out: Activity
KM12 [2] = assay: Growth inhibition of human KM12 cells after 48 hrs by sulforhodamine B assay; settings: KM12, 48 h
[3] = Growth inhibition of human OVCAR5 cells assessed as cell growth at 10^-8 M after 48 hrs by sulforhodamine B assay; settings: OVCAR-5, 48 h
U-251 = assay: Growth inhibition of human U251 cells after 48 hrs by sulforhodamine B assay; settings: U-251, 48 h
HL-60(TB) = assay: Growth inhibition of human HL-60(TB) cells after 48 hrs by sulforhodamine B assay; settings: HL-60, 48 h
[4] = Growth inhibition of human UACC257 cells assessed as cell growth at 10^-8 M after 48 hrs by sulforhodamine B assay; settings: UACC-257, 48 h
NCI-H226 [5] = assay: Growth inhibition of human NCI-H226 cells assessed as cell growth at 10^-6 M after 48 hrs by sulforhodamine B assay; settings: NCI-H226, 48 h, read-out: Activity
COLO 205 [6] = assay: Induction of apoptosis in human COLO205 cells assessed as DNA fragmentation at 10 uM
[7] = Growth inhibition of human OVCAR8 cells assessed as cell growth at 10^-4 M after 48 hrs by sulforhodamine B assay; settings: OVCAR-8, 48 h, read-out: Activity
COLO 205 [8] = assay: Induction of apoptosis in human COLO205 cells assessed as late apoptosis cells level at 10 uM after 24 hrs by Annexin V/propidium iodide staining-based fluorescence microscopy
NCI-H522 = assay: Growth inhibition of human NCI-H522 cells assessed as cell growth at 10^-4 M after 48 hrs by sulforhodamine B assay; settings: NCI-H522, 48 h, read-out: Activity
KM12 [9] = assay: Growth inhibition of human KM12 cells assessed as cell growth at 10^-4 M after 48 hrs by sulforhodamine B assay; settings: KM12, 48 h, read-out: Activity
KM12 [10] = assay: Growth inhibition of human KM12 cells assessed as cell growth at 10^-7 M after 48 hrs by sulforhodamine B assay; settings: KM12, 48 h, read-out: Activity
M14 [11] = assay: Growth inhibition of human M14 cells assessed as cell growth at 10^-8 M after 48 hrs by sulforhodamine B assay; settings: M14, 48 h
MDA-MB-231 = assay: Growth inhibition of human MDA-MB-231 cells assessed as cell growth at 10^-7 M after 48 hrs by sulforhodamine B assay; settings: MDA-MB-231, 48 h, read-out: Activity
[12] = Growth inhibition of human UO31 cells assessed as cell growth at 10^-6 M after 48 hrs by sulforhodamine B assay; settings: UO-31, 48 h, read-out: Activity
T47D [13] = assay: Growth inhibition of human T47D cells assessed as cell growth at 10^-8 M after 48 hrs by sulforhodamine B assay
M14 [14] = assay: Growth inhibition of human M14 cells assessed as cell growth at 10^-6 M after 48 hrs by sulforhodamine B assay; settings: M14, 48 h, read-out: Activity
K562 [15] = assay: Growth inhibition of human K562 cells assessed as cell growth at 10^-4 M after 48 hrs by sulforhodamine B assay; settings: K562, 48 h, read-out: Activity
[16] = Growth inhibition of human SF539 cells assessed as cell growth at 10^-6 M after 48 hrs by sulforhodamine B assay; settings: SF-539, 48 h, read-out: Activity
786-0 = assay: Growth inhibition of human 786-0 cells after 48 hrs by sulforhodamine B assay; settings: 786-0, 48 h
[17] = Growth inhibition of human UO31 cells assessed as cell growth at 10^-4 M after 48 hrs by sulforhodamine B assay; settings: UO-31, 48 h, read-out: Activity
SK-MEL-2 = assay: Growth inhibition of human SK-MEL-2 cells assessed as cell growth at 10^-6 M after 48 hrs by sulforhodamine B assay; settings: SK-MEL-2, 48 h, read-out: Activity
K562 [18] = assay: Growth inhibition of human K562 cells assessed as cell growth at 10^-8 M after 48 hrs by sulforhodamine B assay; settings: K562, 48 h
[19] = Growth inhibition of human HCC2998 cells assessed as cell growth at 10^-6 M after 48 hrs by sulforhodamine B assay; settings: HCC 2998, 48 h, read-out: Activity
NCI-H226 [20] = assay: Growth inhibition of human NCI-H226 cells after 48 hrs by sulforhodamine B assay; settings: NCI-H226, 48 h
[21] = Growth inhibition of human UACC257 cells assessed as cell growth at 10^-7 M after 48 hrs by sulforhodamine B assay; settings: UACC-257, 48 h, read-out: Activity
IGROV-1 = assay: Growth inhibition of human IGROV1 cells assessed as cell growth at 10^-6 M after 48 hrs by sulforhodamine B assay; settings: IGROV-1, 48 h, read-out: Activity
NCI-H322M = assay: Growth inhibition of human NCI-H322M cells assessed as cell growth at 10^-8 M after 48 hrs by sulforhodamine B assay
T47D [22] = assay: Growth inhibition of human T47D cells assessed as cell growth at 10^-7 M after 48 hrs by sulforhodamine B assay; settings: read-out: Activity
SNB-75 = assay: Growth inhibition of human SNB75 cells assessed as cell growth at 10^-6 M after 48 hrs by sulforhodamine B assay; settings: SNB-75, 48 h, read-out: Activity
[23] = read-out: LC50 (the source's name)
[24] = read-out: pLC50 (the source's name) (converted)

## O=C1/C(=C/c2ccc(Cl)cc2Cl)CN(S(=O)(=O)c2ccccc2)C/C1=C\c1ccc(Cl)cc1Cl
[1]
  GI50: 804 nM
  TGI: 2310 nM
[1]; [23]
  CC50: 5810 nM
SNB-19
  GI50: 316 nM
  LC50: > 100000 nM
SNB-19; read-out: Activity
  growth at 0.01 µM: 92%
SNB-19; read-out: pTGI (converted)
  TGI: 2880 nM
CCRF-CEM
  growth at 0.1 µM: 92%
KM12 [2]
  GI50: 256 nM
  TGI: 602 nM
KM12 [2]; [23]
  CC50: 25700 nM
[3]
  GI50: 2140 nM
  LC50: > 100000 nM
[3]; read-out: Activity
  growth at 0.01 µM: 92%
[3]; read-out: pTGI (converted)
  TGI: 7410 nM
U-251
  GI50: 173 nM
  TGI: 373 nM
U-251; [23]
  CC50: 805 nM
HL-60(TB)
  GI50: 562 nM
  TGI: 3970 nM
HL-60(TB); [23]
  CC50: > 100000 nM
[4]
  GI50: 4070 nM
  LC50: > 100000 nM
[4]; read-out: Activity
  growth at 0.01 µM: 94%
[4]; read-out: pTGI (converted)
  TGI: > 100000 nM
NCI-H226 [5]
  growth at 1 µM: 52%
COLO 205 [6]
  Activity: 45%
[7]
  growth at 100 µM: -14%
COLO 205 [8]
  Activity: 18%
NCI-H522
  growth at 100 µM: -56%
KM12 [9]
  growth at 100 µM: -56%
KM12 [10]
  growth at 0.1 µM: 105%
M14 [11]
  GI50: 3630 nM
M14 [11]; read-out: Activity
  growth at 0.01 µM: 102%
M14 [11]; [24]
  CC50: > 100000 nM
M14 [11]; read-out: pTGI (converted)
  TGI: > 100000 nM
MDA-MB-231
  growth at 0.1 µM: 99%
[12]
  growth at 1 µM: -22%
T47D [13]
  GI50: 1260 nM
T47D [13]; read-out: Activity
  growth at 0.01 µM: 99%
T47D [13]; [24]
  CC50: > 100000 nM
T47D [13]; read-out: pTGI (converted)
  TGI: 100000 nM
M14 [14]
  growth at 1 µM: 93%
K562 [15]
  growth at 100 µM: 3%
[16]
  growth at 1 µM: 22%
786-0
  GI50: 241 nM
  TGI: 544 nM
786-0; [23]
  CC50: 1710 nM
[17]
  growth at 100 µM: -60%
SK-MEL-2
  growth at 1 µM: 98%
K562 [18]
  GI50: 347 nM
K562 [18]; read-out: Activity
  growth at 0.01 µM: 102%
K562 [18]; [24]
  CC50: > 100000 nM
K562 [18]; read-out: pTGI (converted)
  TGI: > 100000 nM
[19]
  growth at 1 µM: 13%
NCI-H226 [20]
  GI50: 1040 nM
  TGI: 2870 nM
NCI-H226 [20]; [23]
  CC50: 7920 nM
[21]
  growth at 0.1 µM: 90%
IGROV-1
  growth at 1 µM: -30%
NCI-H322M
  GI50: 676 nM
  LC50: > 100000 nM
NCI-H322M; read-out: Activity
  growth at 0.01 µM: 107%
NCI-H322M; read-out: pTGI (converted)
  TGI: 3550 nM
T47D [22]
  growth at 0.1 µM: 96%
SNB-75
  growth at 1 µM: 38%
